From patent publication US9670209B2 (ACADIA Pharmaceuticals Inc., priority 2013, dated 2017)
pEC50: −log10 of the molar value.

What was measured:
[1] = target: human M3 muscarinic acetylcholine receptor (Homo sapiens (Human), UniProt P20309); assay: R-SAT (Receptor Selection and Amplification) assay, M3; assay type: cell-based; conditions: for Emax: read-out: M3 EFF % AVG; for M3 PEC50 AVG: R-SAT, NIH-3T3 cells
Protocol: (§1) Briefly, NIH-3T3 cells were grown in 96-well tissue culture plates to 70% to 80% confluence. Cells were transfected with plasmid DNAs using Superfect Reagent (QIAGEN, Valencia, Calif.) as per the manufacturer's protocols. […] Cells were then grown in a humidified atmosphere with 5% ambient CO2 for 4 to 6 days. Media were then removed from the plates, and beta-galactosidase activity was measured by the addition of o-nitrophenyl-D-galactopyranoside (in phosphate-buffered saline with 5% NP-40 detergent). […] All data represent the mean of three wells and were analyzed using the computer program Excel Fit, and EC50 determinations were made using least-squares fit analysis with GraphPad Software Inc. (San Diego, Calif.) software.

[2] = target: human M2 muscarinic acetylcholine receptor (Homo sapiens (Human), UniProt P08172); assay: R-SAT (Receptor Selection and Amplification) assay, M2; assay type: cell-based; conditions: for M2 PEC50 AVG: R-SAT, NIH-3T3 cells; for Emax: read-out: M2 EFF % AVG
Sequence of human M2 muscarinic acetylcholine receptor (P08172 whole entry): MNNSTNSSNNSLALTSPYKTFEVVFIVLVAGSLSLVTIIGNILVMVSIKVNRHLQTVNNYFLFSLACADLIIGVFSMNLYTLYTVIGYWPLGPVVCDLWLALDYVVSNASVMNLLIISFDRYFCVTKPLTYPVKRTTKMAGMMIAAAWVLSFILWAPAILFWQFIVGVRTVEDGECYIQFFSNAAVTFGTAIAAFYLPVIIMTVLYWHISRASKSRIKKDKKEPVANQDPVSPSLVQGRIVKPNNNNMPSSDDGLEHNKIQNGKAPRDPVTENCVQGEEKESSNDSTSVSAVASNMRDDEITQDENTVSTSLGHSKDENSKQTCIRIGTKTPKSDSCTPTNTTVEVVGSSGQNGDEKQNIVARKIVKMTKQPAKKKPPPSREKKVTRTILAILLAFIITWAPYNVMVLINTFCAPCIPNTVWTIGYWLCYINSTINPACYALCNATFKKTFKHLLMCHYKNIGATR
Protocol: as §1

M1 muscarinic receptor = M1 muscarinic receptor (Homo sapiens (Human), UniProt P11229); assay: M1 GTPγS binding assay; assay type: biochemical; conditions: for Emax: read-out: M1 GTPγS EFF % AVG; for M1 GTPγS PEC50 AVG: GTPγS binding;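 as to Emax: efficacy relative to carbachol as 100%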
Sequence of M1 muscarinic receptor (P11229 whole entry): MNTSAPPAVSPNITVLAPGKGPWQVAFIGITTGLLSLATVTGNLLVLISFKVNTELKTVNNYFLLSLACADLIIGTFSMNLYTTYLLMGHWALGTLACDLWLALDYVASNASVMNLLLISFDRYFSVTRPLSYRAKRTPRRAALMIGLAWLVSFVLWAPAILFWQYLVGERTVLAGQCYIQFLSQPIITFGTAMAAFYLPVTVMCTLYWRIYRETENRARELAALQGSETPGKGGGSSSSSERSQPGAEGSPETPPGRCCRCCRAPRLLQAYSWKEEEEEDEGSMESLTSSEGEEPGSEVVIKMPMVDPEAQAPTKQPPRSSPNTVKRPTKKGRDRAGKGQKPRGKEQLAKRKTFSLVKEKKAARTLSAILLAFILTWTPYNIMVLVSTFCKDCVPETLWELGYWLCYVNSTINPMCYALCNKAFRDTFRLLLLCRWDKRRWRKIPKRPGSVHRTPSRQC

[3] = target: human M1 muscarinic acetylcholine receptor (Homo sapiens (Human), UniProt P11229); assay: R-SAT (Receptor Selection and Amplification) assay, M1; assay type: cell-based; conditions: for Emax: percent efficacy vs carbachol = 100 percent, read-out: M1 EFF % AVG
Sequence of human M1 muscarinic acetylcholine receptor (P11229 whole entry): as above
Protocol: as §1

Sequence of human M3 muscarinic acetylcholine receptor (P20309 whole entry): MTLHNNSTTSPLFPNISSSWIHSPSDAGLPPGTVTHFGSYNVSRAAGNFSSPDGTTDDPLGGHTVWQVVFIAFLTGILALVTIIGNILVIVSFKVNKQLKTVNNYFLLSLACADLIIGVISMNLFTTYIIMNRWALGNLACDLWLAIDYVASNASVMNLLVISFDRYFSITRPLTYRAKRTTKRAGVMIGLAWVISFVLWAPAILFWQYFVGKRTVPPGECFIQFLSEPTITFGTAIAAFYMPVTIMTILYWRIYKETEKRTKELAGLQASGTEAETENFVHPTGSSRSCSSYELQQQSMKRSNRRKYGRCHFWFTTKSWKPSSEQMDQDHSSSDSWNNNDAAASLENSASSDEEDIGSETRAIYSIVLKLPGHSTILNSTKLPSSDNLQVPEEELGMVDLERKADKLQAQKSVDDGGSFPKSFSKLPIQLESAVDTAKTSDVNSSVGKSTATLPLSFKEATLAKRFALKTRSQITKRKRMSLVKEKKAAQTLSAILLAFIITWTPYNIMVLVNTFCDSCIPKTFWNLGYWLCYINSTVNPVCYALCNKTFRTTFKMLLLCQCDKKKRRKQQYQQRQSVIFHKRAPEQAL

Structure (SMILES)	Emax [1] [%]	M2 PEC50 AVG [2]	Emax [2] [%]	pEC50 (M1 muscarinic receptor)	Emax (M1 muscarinic receptor) [%]	M1 PEC50 AVG ([3]; NIH-3T3 cells)	Emax [3] [%]	EC50 ([3]; NIH-3T3 cells, read-out: M1 PEC50 AVG (converted)) [nM]	M3 PEC50 AVG [1]	M1 GTPγS PEC50 AVG (M1 muscarinic receptor)
C[C@H](CN1[C@@H]2CC[C@H]1C[C@@H](OCC1CCC1)C2)Cn1ncc2ccccc21 [Compound 315, 1-((R)-3-(3-(cyclobutylmethoxy)-8-aza-bicyclo[3.2.1]octan-8-yl)-2-methylpropyl)-1H-indazole]	5	7.3	47	7.30	36	8.1	100	–	–	–
Cc1cccc2cnn(C[C@H](C)CN3[C@@H]4CC[C@H]3C[C@@H](OCC3CC3)C4)c12 [Compound 317, 1-((R)-3-(3-(cyclopropylmethoxy)-8-aza-bicyclo[3.2.1]octan-8-yl)-2-methylpropyl)-7-methyl-1H-indazole]	2	6.9	46	7.00	85	7.6	81	–	–	–
COCC[C@H]1C[C@H]2CC[C@@H](C1)N2C[C@@H](C)Cn1ncc2ccc(OC)cc21 [Compound 313, 1-((R)-3-((1R,3R,58)-3-(2-methoxyethyl)-8-azabicyclo[3.2.1]octan-8-yl)-2-methylpropyl)-6-methoxy-1H-indazole]	7	7.3	111	7.40	49	8.2	116	–	–	–
C[C@H](CN1[C@@H]2CC[C@H]1C[C@@H](OCC1CC1)C2)Cn1ncc2ccc(CO)cc21 [Compound 310s]	6	–	27	6.20	62	–	96	31.6	–	–
CCCO[C@H]1C[C@H]2CC[C@@H](C1)N2C[C@@H](C)Cn1ncc2ccccc21 [Compound 319s, 1-((R)-3-(3-(propoxy)-8-aza-bicyclo[3.2.1]octan-8-yl)-2-methylpropyl)-1H-indazole]	3	7.5	102	6.70	63	8.1	111	–	–	–
CCOCC[C@H]1C[C@H]2CC[C@@H](C1)N2C[C@@H](C)Cn1ncc2ccc(C)cc21 [Compound 324, 1-((R)-3-((1R,3R,5S)-3-(2-ethoxyethyl)-8-azabicyclo[3.2.1]octan-8-yl)-2-methylpropyl)-6-methyl-1H-indazole]	17	7.9	45	8.20	31	9.1	82	–	–	–
COCC[C@H]1C[C@H]2CC[C@@H](C1)N2C[C@@H](C)Cn1ncc2ccc(F)cc21 [Compound 309, 1-((R)-3-(3-(2-Methoxyethyl)-8-aza-bicyclo[3.2.1]octan-8-yl)-2-methylpropyl)-6-fluoro-1H-indazole]	18	7.5	176	–	53	9.4	123	–	6.9	7.3
C#CCO[C@H]1C[C@H]2CC[C@@H](C1)N2C[C@@H](C)Cn1ncc2ccccc21 [Compound 318s, 1-((R)-3-((1R,3R,5S)-3-(prop-2-ynyloxy)-8-azabicyclo[3.2.1]octan-8-yl)-2-methylpropyl)-1H-indazole]	8	7.2	92	7.10	66	8.0	122	–	–	–
COc1ccc2cnn(C[C@H](C)CN3[C@@H]4CC[C@H]3C[C@@H](OCC3CC3)C4)c2c1 [Compound 311]	2	–	65	7.30	55	–	120	–	–	–
Cc1nn(C[C@H](C)CN2[C@@H]3CC[C@H]2C[C@@H](OCC2CC2)C3)c2ccccc12 [Compound 316, 1-((R)-3-(3-(cyclopropylmethoxy)-8-aza-bicyclo[3.2.1]octan-8-yl)-2-methylpropyl)-3-methyl-1H-indazole]	5	6.6	81	7.50	88	7.9	78	–	–	–
C=CCO[C@H]1C[C@H]2CC[C@@H](C1)N2C[C@@H](C)Cn1ncc2ccc(F)cc21 [Compound 308, 1-((R)-3-(3-(Allyloxy)-8-aza-bicyclo[3.2.1]octan-8-yl)-2-methylpropyl)-6-fluoro-1H-indazole]	18	7.4	152	–	66	8.9	131	–	6.3	7.1
Cc1ccc2cnn(C[C@H](C)CN3[C@@H]4CC[C@H]3C[C@@H](OCC3CC3)C4)c2c1 [Compound 304, 1-((R)-3-(3-(Cyclopropylmethoxy)-8-aza-bicyclo[3.2.1]octan-8-yl)-2-methylpropyl)-6-methyl-1H-indazole]	9	7.6	108	–	67	8.9	110	–	7.4	8.3
C[C@H](CN1[C@@H]2CC[C@H]1C[C@@H](OCC1CC1)C2)Cn1ncc2ccc(F)cc21 [Compound 307, 1-((R)-3-(3-(Cyclopropylmethoxy)-8-aza-bicyclo[3.2.1]octan-8-yl)-2-methylpropyl)-6-fluoro-1H-indazole]	19	7.7	198	–	63	9.5	156	–	7.3	8.0
COC/C=C1\C[C@H]2CC[C@@H](C1)N2C[C@@H](C)Cn1ncc2ccccc21 [Compound 320s, 1-((R)-3-((1R,3R,58)-3-(2-methoxyethylidene)-8-azabicyclo[3.2.1]octan-8-yl)-2-methylpropyl)-1H-indazole]	8	7.2	90	6.80	60	8.2	109	–	–	–
CCOCC[C@H]1C[C@H]2CC[C@@H](C1)N2C[C@@H](C)Cn1ncc2ccccc21 [Compound 323, 1-((R)-3-((1R,3R,5S)-3-(2-ethoxyethyl)-8-azabicyclo[3.2.1]octan-8-yl)-2-methylpropyl)-1H-indazole]	-2	7.8	34	7.70	32	9.1	66	–	–	–
C[C@H](CN1[C@@H]2CC[C@H]1C[C@@H](OC1CCCC1)C2)Cn1ncc2ccccc21 [Compound 314s, 1-((R)-3-((1R,3R,58)-3-(cyclopentyloxy)-8-azabicyclo[3.2.1]octan-8-yl)-2-methylpropyl)-1H-indazole]	8	7.3	74	7.60	48	8.4	104	–	–	–
C#CCO[C@H]1C[C@H]2CC[C@@H](C1)N2C[C@@H](C)Cn1ncc2ccc(OC)cc21 [Compound 322s, 1-((R)-3-((1R,3R,5S)-3-(prop-2-ynyloxy)-8-azabicyclo[3.2.1]octan-8-yl)-2-methylpropyl)-6-methoxy-1H-indazole]	5	7.1	44	7.10	42	8.0	86	–	–	–
